Among the data in ChEMBL document CHEMBL5050859, “Gpx4 inhibitors, pharmaceutical compositions thereof, and their use for treating gpx4-mediated diseases” (2021) are EC50 values, retold here.

The test deals with Huh-7. The experiment in a line: Antiproliferative activity against human Huh-7 cells after 24 hrs by Cell Titer Glo assay. The class given is functional, cell-based. The following applies: Huh-7, 24 h. In general terms: In ATP-based viability assays light output follows the ATP content of the culture.

As for `C#CC(=O)N(c1cccc(S(N)(=O)=O)c1)C(C(=O)NC(C)(C)C)c1ccc(N)cc1` (configuration not stated), the EC50 (in general, the concentration at which the effect is half-maximal) is more than 10000 nM.
`C#CC(=O)N(CCc1ccccc1)C1(C(=O)NCc2ccccc2)CCCC(C(=O)OC)C1` (configuration not stated) returned an EC50 of 100 nM.
The figure for `C#CC(=O)N(c1ccc(N)cc1)C(C(=O)NC(C)(C)C)c1ccc(N)cc1` (configuration not stated) is 2000 nM; for `Nc1ccc(N(C(=O)CCl)C(C(=O)NCCc2ccccc2)c2cccs2)cc1` (configuration not stated) it is 2000 nM; for `C#CC(=O)N(c1ccc(OC)c(Cl)c1)C(C(=O)NCc1ccccc1)c1ccccc1` (configuration not stated) it is not above 100 nM.
As for `C#CC(=O)N(c1cccc(C#N)c1)C(C(=O)NCc1ccccc1)c1ccccc1` (configuration not stated), the EC50 is not above 100 nM.
As for `C#CC(=O)N(c1cc(Cl)ccc1F)C(C(=O)NCc1ccccc1)c1cccc(N)c1` (configuration not stated), the figure is not above 100 nM.
As for `CN(C)C/C=C/C(=O)N(c1ccc2c(cnn2C)c1)C1(C(=O)NCc2ccccc2)CCOCC1`, the figure is more than 10000 nM; as for `CC(=O)Nc1cccc(N(C(=O)CCl)C(C(=O)NCCc2ccccc2)c2ccc([N+](=O)[O-])cc2)c1` (configuration not stated), 2000 nM.
The compound `C#CC(=O)N(c1ccc2c(c1)ncn2C)C1(C(=O)NCc2ccccc2)CCOCC1` displayed an EC50 of 500 nM.
For the compound `C#CC(=O)N(c1cccc(Cl)c1)C1(C(=O)NCc2ccccc2)CCCC(=O)C1` (configuration not stated), the EC50 was not above 100 nM.
In the case of `C=CC(=O)N(C1CCC1)C1(C(=O)NCc2ccccc2)CCOCC1`, the EC50 was more than 10000 nM.
As for `C#CC(=O)N(c1cccc(NC(C)=O)c1)C(C(=O)NCc1ccccc1)c1cccc(N)c1` (configuration not stated), the figure is 2000 nM; as for `CC(C)(C)NC(=O)C(c1ccc([N+](=O)[O-])cc1)N(C(=O)CCl)c1ccc(Cl)cc1` (configuration not stated), 2000 nM; as for `C#CC(=O)N(c1cccc(O)c1)C(C(=O)NCc1ccccc1)c1ccc(N)cc1` (configuration not stated), 2000 nM.
In turn, `C=CC(=O)N(c1cccc(Cl)c1)C1(C(=O)NCc2ccccc2)CCOCC1` displayed an EC50 of more than 10000 nM.
As for `C#CC(=O)N(C1CCC1)C1(C(=O)NCc2ccccc2)CCCC(C(=O)OC)C1` (configuration not stated), the figure is 500 nM.
In turn, `C#CC(=O)N(c1ccc(Cl)c(Cl)c1)C(C(=O)NCc1ccccc1)c1ccc(N)cc1` (configuration not stated) showed an EC50 not above 100 nM.
The figure for `C#CC(=O)N(c1ccc(CO)cc1)C(C(=O)NC(C)(C)C)c1cccc(N)c1` (configuration not stated) is 2000 nM.
For the compound `C#CC(=O)N(c1ccc(N)cc1)C(C(=O)NC(C)(C)C)c1cccc(N)c1` (configuration not stated), a half-maximal effect (EC50) was put at 2000 nM.
As for `C#CC(=O)N(c1ccc(O)cc1)C(C(=O)NCc1ccccc1)c1cccc(N)c1` (configuration not stated), the figure is 2000 nM.
The figure for `COc1ccc(N(C(=O)CCl)C(C(=O)NCCc2ccccc2)c2ccc(NC(=O)CO)cc2)cc1Cl` (configuration not stated) is 500 nM; for `C#CC(=O)N(c1cccc(Cl)c1)C(C(=O)NCC1COC1)c1ccccc1` (configuration not stated) it is not above 100 nM.
In turn, `C#CC(=O)N(c1ccc2c(c1)OCO2)C(C(=O)NCc1ccccc1)c1ccccc1` (configuration not stated) gave an EC50 not above 100 nM.
The figure for `C#CC(=O)N(c1cccc(Cl)c1)C(C(=O)NCc1ccc(C#N)cc1)c1ccccc1` (configuration not stated) is not above 100 nM.
As for `C#CC(=O)N(Cc1cc[nH]n1)C1(C(=O)NCc2ccccc2)CCOCC1`, the figure is more than 10000 nM; as for `C#CC(=O)N(c1cccc(Cl)c1Cl)C(C(=O)NCc1ccccc1)c1ccccc1` (configuration not stated), not above 100 nM.
In the case of `C#CC(=O)N(c1ccc2nsnc2c1)C(C(=O)NCc1ccccc1)c1ccccc1` (configuration not stated), the EC50 is not above 100 nM.
Regarding `C#CC(=O)N(c1cc2c(cc1I)OCO2)C(C(=O)NCc1ccccc1)c1ccccc1` (configuration not stated), the EC50 is not above 100 nM.
The figure for `Cn1ncc2cc(N(C(=O)CCBr)C3(C(=O)NCc4ccccc4)CCOCC3)ccc21` is more than 10000 nM; for `C#CC(=O)N(c1ccc2c(cnn2C)c1)C1(C(=O)NCc2ccccc2)CCCC(C(=O)OC)C1` (configuration not stated) it is not above 100 nM.
As for `C#CC(=O)N(c1cccc(Cl)c1)C(C(=O)NCc1ccccc1)C1CC1` (configuration not stated), the figure is 100 nM.
The compound `C#CC(=O)N(c1cccc(Cl)c1)C1(C(=O)NCc2ccccc2)CCCC(O)C1` (configuration not stated) returned an EC50 of 2000 nM.
The compound `COc1ccc(N(C(=O)CCl)C2(C(=O)NCc3ccccc3)CCC(F)(F)CC2)cc1Cl` returned an EC50 not above 100 nM.
As for `C#CC(=O)N(c1cccc(C(=O)OC)c1)C(C(=O)NCc1ccccc1)c1ccccc1` (configuration not stated), the figure is not above 100 nM; as for `C#CC(=O)N(c1cccc(Cl)c1)C(C(=O)NCc1ccccc1)c1ccncc1` (configuration not stated), 500 nM; as for `C#CC(=O)N(c1ccc2cnn(C)c2c1)C(C(=O)NCc1ccccc1)c1ccccc1` (configuration not stated), not above 100 nM.
As for `C#CC(=O)N(c1cccc(Cl)c1)C1(C(=O)NCC(=O)NCc2ccccc2)CCOCC1`, the figure is 100 nM.
Consider `C#CC(=O)N(c1ccc(OC)cc1)C(C(=O)NCc1ccccc1)c1cccc(N)c1` (configuration not stated), for which the EC50 is not above 100 nM.
As for `Cn1ncc2cc(N(C(=O)C#CCO)C3(C(=O)NCc4ccccc4)CCOCC3)ccc21`, the figure is more than 10000 nM; as for `C#CC(=O)N(c1ccc(O)cc1)C(C(=O)NC(C)(C)C)c1cccc(N)c1` (configuration not stated), 2000 nM; as for `C#CC(=O)N(c1cccc(F)c1)C(C(=O)NCc1ccccc1)c1ccc(N)cc1` (configuration not stated), 100 nM.
As for `C#CC(=O)N(c1ccc(N(C)C)cc1)C1(C(=O)NCc2ccccc2)CCOCC1`, the figure is 100 nM; as for `C#CC(=O)N(c1cccc(Cl)c1)C(C(=O)NCc1ccccc1)c1cccs1` (configuration not stated), not above 100 nM; as for `C#CC(=O)N(c1cccc2cnn(C)c12)C(C(=O)NCc1ccccc1)c1ccccc1` (configuration not stated), not above 100 nM.
Compound `C#CC(=O)N(c1cccc(S(C)(=O)=O)c1)C(C(=O)NC(C)(C)C)c1ccc(N)cc1` (configuration not stated) came in with an EC50 of 2000 nM.
As for `O=C(C#CCO)N(c1cc(Cl)ccc1Cl)C1(C(=O)NCc2ccccc2)CCOCC1`, the figure is more than 10000 nM; as for `Cn1ncc2cc(N(C(=O)CCCl)C3(C(=O)NCc4ccccc4)CCOCC3)ccc21`, more than 10000 nM; as for `C#CC(=O)N(c1ccc(CO)cc1)C(C(=O)NCc1ccccc1)c1ccc(N)cc1` (configuration not stated), 500 nM.
`C#CC(=O)N(c1cccc(Cl)c1)C(C(=O)NC(C)(C)C)c1ccc(N)cc1` (configuration not stated): the EC50 amounted to 100 nM.
As for `C#CC(=O)N(c1cccc(Cl)c1)C1(C(=O)NCc2ccccc2)CCC(C(=O)OC)CC1` (configuration not stated), the figure is not above 100 nM.
The figure for `C#CC(=O)N(c1cc(Cl)ccc1I)C(C(=O)NCc1ccccc1)c1ccccc1` (configuration not stated) is not above 100 nM; for `C#CC(=O)N(c1ccc2[nH]ccc2c1)C1(C(=O)NCc2ccccc2)CCOCC1` it is 2000 nM.
As for `C#CC(=O)N(c1ccc(C(=O)OC)cc1)C(C(=O)NCc1ccccc1)c1cccc(N)c1` (configuration not stated), the figure is not above 100 nM.
The compound `C#CC(=O)N(c1ccc(OC)c(Cl)c1)C(C(=O)NC(C)(C)C)c1ccc(N)cc1` (configuration not stated) yielded an EC50 not above 100 nM.
The figure for `C#CC(=O)N(c1cccc(Cl)c1)C1(C(=O)NCC(=O)O)CCOCC1` is more than 10000 nM; for `C#CC(=O)N(c1cc(Cl)ccc1Cl)C(C(=O)NCc1ccccc1)c1ccccc1` (configuration not stated) it is not above 100 nM.
The figure for `C#CC(=O)N(c1cccc(Cl)c1)[C@]1(C(=O)NCc2ccccc2)CC[C@H](O)CC1` is 100 nM; for `C#CC(=O)N(c1cccc(Cl)c1)C1(C(=O)NCC(=O)NCc2ccccc2Cl)CCOCC1` it is 100 nM; for `O=C(C#CCO)N(c1cccc(Cl)c1)C1(C(=O)NCc2ccccc2)CCOCC1` it is more than 10000 nM.
In turn, `C#CC(=O)N(c1cccc(Cl)c1)C1(C(=O)NCC(=O)NCc2ccccc2C#N)CCOCC1` registered an EC50 of 100 nM.
`C#CC(=O)N(c1cccc(Cl)c1)C(C(=O)NCc1ccccc1C#N)c1ccccc1` (configuration not stated) came in with an EC50 not above 100 nM.
As for `C#CC(=O)N(c1cccc(Cl)c1)C1(C(=O)NCc2ccccc2)CCCCC1`, the figure is not above 100 nM.
Consider `C#CC(=O)N(c1ccc(S(C)(=O)=O)cc1)C(C(=O)NC(C)(C)C)c1ccc(N)cc1` (configuration not stated), for which the response was half-maximal at 2000 nM (EC50). In other words, the single-digit micromolar range.
As for `Nc1ccc(C(C(=O)NCCc2ccccc2)N(C(=O)CCl)c2cccc(Cl)c2)cc1` (configuration not stated), it took 500 nM to reach a half-maximal effect (EC50).
Regarding `C#CC(=O)N(c1ccc2ncsc2c1)C(C(=O)NCc1ccccc1)c1ccccc1` (configuration not stated), the EC50 turned out to be 100 nM. This EC50 is about 5-fold lower than that of the compound before.
As for `C#CC(=O)N(c1ccc(NC(C)=O)cc1)C(C(=O)NC(C)(C)C)c1ccc(N)cc1` (configuration not stated), the figure is 2000 nM; as for `C#CC(=O)N(c1cccc(Cl)c1)C1(C(=O)NCS(=O)(=O)c2ccc(C)cc2)CCOCC1`, 500 nM.
The figure for `C#CC(=O)N(c1cccc(F)c1)C(C(=O)NCc1ccccc1)c1cccc(N)c1` (configuration not stated) is 100 nM.
For `C#CC(=O)N(c1ccc2c(cnn2C)c1)C(C(=O)NCc1ccccc1)c1ccccc1` (configuration not stated), the EC50 was not above 100 nM.
In turn, `C#CC(=O)N(C1CCC(=O)N(C)C1)C(C(=O)NCc1ccccc1)c1ccccc1` (configuration not stated) returned an EC50 of 2000 nM.
As for `C#CC(=O)N(c1cccc(Cl)c1)C(C(=O)NCc1ccccc1)C1CCC(C(=O)OC)CC1` (configuration not stated), the figure is 100 nM.
The figure for `C#CC(=O)N(c1ccc(C(=O)OC)cc1)C(C(=O)NC(C)(C)C)c1ccc(N)cc1` (configuration not stated) is not above 100 nM; for `C#CC(=O)N(c1ccc2c(c1)C(=O)OC2)C1(C(=O)NCc2ccccc2)CCOCC1` it is not above 100 nM.
In turn, `C=CC(=O)N(c1ccc(OC)c(Cl)c1)C(C(=O)NCc1ccccc1)c1cccc(N)c1` (configuration not stated) showed an EC50 of more than 10000 nM.
The compound `C#CC(=O)N(c1cccc2nsnc12)C1(C(=O)NCc2ccccc2)CCOCC1` yielded an EC50 not above 100 nM.
Regarding `O=C(CCl)N(c1cccc2nsnc12)C1(C(=O)NCc2ccccc2)CCOCC1`, the EC50 is 100 nM.
For the compound `C#CC(=O)N(c1ccc2c(ccn2C)c1)C1(C(=O)NCc2ccccc2)CCOCC1`, the EC50 was not above 100 nM.
Turning to `C=C(F)C(=O)N(c1ccc2c(cnn2C)c1)C1(C(=O)NCc2ccccc2)CCOCC1`, the EC50 was more than 10000 nM.
As for `C#CC(=O)N(c1cccc(Cl)c1)[C@]1(C(=O)NCc2ccccc2)CC[C@@H](O)CC1`, the figure is 100 nM.
In the case of `C#CC(=O)N(c1cccc(Cl)c1)C(C(=O)NCc1ccccc1)c1ccccc1` (configuration not stated), the EC50 is not above 100 nM.
As for `C=CC(=O)N(c1ccc2c(cnn2C)c1)C1(C(=O)NCc2ccccc2)CCOCC1`, the figure is more than 10000 nM; as for `C#CC(=O)N(c1cccc(Cl)c1)C(C(=O)NCc1ccccc1)c1cccc(CCO)c1` (configuration not stated), 100 nM; as for `C#CC(=O)N(c1ccc(OC)cc1OC)C1(C(=O)NCc2ccccc2)CCOCC1`, not above 100 nM.
The figure for `C#CC(=O)N(c1ccc2nncn2c1)C(C(=O)NCc1ccccc1)c1ccccc1` (configuration not stated) is 100 nM; for `C[Si](C)(C)C#CC(=O)N(c1cccc(Cl)c1)C1(C(=O)NCc2cccc(Cl)c2)CCOCC1` it is not above 100 nM; for `C#CC(=O)N(c1cccc(Cl)c1F)C(C(=O)NCc1ccccc1)c1ccc(N)cc1` (configuration not stated) it is not above 100 nM.
